Test results from patent US20080207573A1, “COMPOUNDS FOR TREATING VIRAL INFECTIONS” (priority 2006, published 2008).

tested on: HIV-1 laboratory strain, NL4-3; experiment: MT-4 Cytoprotection Assay (protection from HIV-induced cytopathic effect, WST-1 readout); assay type: cell-based; conditions: Human immunodeficiency virus 1, NL43, MT4; Table 7; MT-4 cells, HIV-1 NL4-3; read-out: MT4 EC50
Protocol: MT-4 Cytoprotection Assay
The HTLV-1 transformed T cell line, MT-4, is highly susceptible to HIV-1 infection. Anti-HIV-1 agents were evaluated in this target cell line by protection from the HIV-induced cytopathic effect. In this assay, viability of both HIV-1 and mock-infected cells was assessed in a […] assay that monitors the ability of metabolically-active cells to reduce the tetrazolium salt WST-1. Cytoprotection by antiviral compounds is indicated by the positive readout of increased WST-1 cleavage.
Briefly, exponentially growing MT-4 cells were mock-infected or batch-infected with the HIV-1 laboratory strain, NL4-3, at a multiplicity of infection of 0.0005. Following a two hour infection, the cells were washed to remove unbound virus and plated in the presence of increasing concentrations of compound. After four days incubation, cytoprotection in the infected cells and compound toxicity in mock-infected cells were analyzed using the WST-1 assay.

Compound	EC50
C=C(C)[C@@H]1CC[C@]2(C(=O)Nc3cccc4cccnc34)CC[C@]3(C)C(CCC4[C@@]5(C)CCC(OC(=O)CC(C)(C)C(=O)O)C(C)(C)C5CC[C@]43C)C12 (stereo partly drawn) [Compound 127]	3100 nM

same assay, conditions: Human immunodeficiency virus 1, NL43; list of representative compounds; read-out: EC50 of less than about 100 nm (representative compounds)

Compound	EC50
C=C(C)[C@@H]1CC[C@]2(C(=O)NCCCc3ccc(OC)cc3)CC[C@]3(C)[C@H](CC[C@@H]4[C@@]5(C)CC[C@H](OC(=O)CC(C)(C)C(=O)O)C(C)(C)[C@@H]5CC[C@]43C)[C@@H]12 [Compound 104]	< 100 nM
C=C(C)[C@@H]1CC[C@]2(C(=O)NCc3ccc4ccccc4n3)CC[C@]3(C)[C@H](CC[C@@H]4[C@@]5(C)CC[C@H](OC(=O)CC(C)(C)C(=O)O)C(C)(C)[C@@H]5CC[C@]43C)[C@@H]12 [Compound 111]	< 100 nM
C=C(C)[C@@H]1CC[C@]2(C(=O)NCc3nc4ccccc4[nH]3)CC[C@]3(C)[C@H](CC[C@@H]4[C@@]5(C)CC[C@H](OC(=O)CC(C)(C)C(=O)O)C(C)(C)[C@@H]5CC[C@]43C)[C@@H]12 [Compound 110]	< 100 nM
C=C(C)[C@@H]1CC[C@]2(C(=O)NCc3ccc4c(c3)OCCO4)CC[C@]3(C)[C@H](CC[C@@H]4[C@@]5(C)CC[C@H](OC(=O)CC(C)(C)C(=O)O)C(C)(C)[C@@H]5CC[C@]43C)[C@@H]12 [Compound 84]	< 100 nM
CC(C)[C@@H]1CC[C@]2(C(=O)NCC3CCCO3)CC[C@]3(C)[C@H](CC[C@@H]4[C@@]5(C)CC[C@H](OC(=O)CC(C)(C)C(=O)O)C(C)(C)[C@@H]5CC[C@]43C)[C@@H]12 (stereo partly drawn) [Compound 123]	< 100 nM
C=C(C)[C@@H]1CC[C@]2(C(=O)NC(Cc3ccccc3)C(=O)O)CC[C@]3(C)[C@H](CC[C@@H]4[C@@]5(C)CC[C@H](OC(=O)CC(C)(C)C(=O)O)C(C)(C)[C@@H]5CC[C@]43C)[C@@H]12 (stereo partly drawn) [Compound 115]	< 100 nM
C=C(C)[C@@H]1CC[C@]2(C(=O)NC(C(=O)O)c3ccc(OC)cc3)CC[C@]3(C)[C@H](CC[C@@H]4[C@@]5(C)CC[C@H](OC(=O)CC(C)(C)C(=O)O)C(C)(C)[C@@H]5CC[C@]43C)[C@@H]12 (stereo partly drawn) [Compound 120]	< 100 nM
C=C(C)[C@@H]1CC[C@]2(C(=O)NCCc3cccnc3)CC[C@]3(C)[C@H](CC[C@@H]4[C@@]5(C)CC[C@H](OC(=O)CC(C)(C)C(=O)O)C(C)(C)[C@@H]5CC[C@]43C)[C@@H]12 [Compound 93]	< 100 nM
C=C(C)[C@@H]1CC[C@]2(C(=O)NCc3ccco3)CC[C@]3(C)[C@H](CC[C@@H]4[C@@]5(C)CC[C@H](OC(=O)CC(C)(C)C(=O)O)C(C)(C)[C@@H]5CC[C@]43C)[C@@H]12 [Compound 74]	< 100 nM
C=C(C)[C@@H]1CC[C@]2(C(=O)NCc3ccoc3)CC[C@]3(C)[C@H](CC[C@@H]4[C@@]5(C)CC[C@H](OC(=O)CC(C)(C)C(=O)O)C(C)(C)[C@@H]5CC[C@]43C)[C@@H]12 [Compound 95]	< 100 nM
C=C(C)[C@@H]1CC[C@]2(C(=O)NCc3cccc4ccccc34)CC[C@]3(C)[C@H](CC[C@@H]4[C@@]5(C)CC[C@H](OC(=O)CC(C)(C)C(=O)O)C(C)(C)[C@@H]5CC[C@]43C)[C@@H]12 [Compound 94]	< 100 nM
C=C(C)[C@@H]1CC[C@]2(C(=O)NCc3nc4ccccc4s3)CC[C@]3(C)[C@H](CC[C@@H]4[C@@]5(C)CC[C@H](OC(=O)CC(C)(C)C(=O)O)C(C)(C)[C@@H]5CC[C@]43C)[C@@H]12 [Compound 106]	< 100 nM
C=C(C)[C@@H]1CC[C@]2(C(=O)NCc3ccccc3OC)CC[C@]3(C)[C@H](CC[C@@H]4[C@@]5(C)CC[C@H](OC(=O)CC(C)(C)C(=O)O)C(C)(C)[C@@H]5CC[C@]43C)[C@@H]12 [Compound 78]	< 100 nM
C=C(C)[C@@H]1CC[C@]2(C(=O)NCCc3ccccn3)CC[C@]3(C)[C@H](CC[C@@H]4[C@@]5(C)CC[C@H](OC(=O)CC(C)(C)C(=O)O)C(C)(C)[C@@H]5CC[C@]43C)[C@@H]12 [Compound 92]	< 100 nM
